Experimental data published in patent US9593305B2, “Differentiation of pluripotent stem cells” (Janssen Biotech, Inc., priority 2008, dated 2017).

System: H1 human embryonic stem cells
Assay: Step-wise differentiation, high content analysis of SOX17, cell number, insulin, glucagon (Example 16)
Format: cell-based
Protocol: The assay was initiated by aspirating the culture medium from each well and adding back an aliquot (0.5 ml) of test medium. Test conditions for the first step of differentiation were conducted over a three-day period, feeding daily by aspirating and replacing the medium from each well with fresh test medium. On the first day of assay, 100 ng/ml activin A (PeproTech; Cat #120-14) or 100 ng/ml GDF-8 (R&D Systems, Cat #788-G8) was added to respective assay wells where each growth factor was diluted into RPMI-1640 medium (Invitrogen; Cat #: 22400) with 2% Albumin Bovine Fraction V, Fatty Acid Free (FAF BSA) (Proliant Inc. Cat #: SKU 68700), and 20 ng/ml Wnt3a (R&D Systems; Cat #1324-WN/CF). On the second day of assay, 100 ng/ml activin A or 100 ng/ml GDF-8 was diluted into RPMI-1640 medium supplemented with 2% FAF BSA without Wnt3a. In some test samples using GDF-8, Wnt3a was replaced with a small molecule compound, added only on the first day of definitive endoderm differentiation. These small molecules included Compound 19 (2.5 μM in assay), Compound 202 (2.5 μM in assay), Compound 40 (2.5 μM in assay), or a commercially available GSK3 inhibitor BIO (0.5 μM in assay) (EMD Chemicals, Inc.; Cat #361550). At the conclusion of the first step of differentiation, cells from some wells were harvested for flow cytometry analysis to evaluate levels of CXCR4, a marker of definitive endoderm formation. Additional wells were harvested for RT-PCR analysis to measure other markers of differentiation.
Step 5 of the differentiation protocol was carried out over seven days in DMEM-high glucose with 0.1% Albumax, 0.5× Insulin-Transferrin-Selenium, and 1 μM Alk 5 inhibitor. […]
Imaging was performed using an IN Cell Analyzer 1000 (GE Healthcare) utilizing the 51008bs dichroic for cells stained with Hoechst 33342 and Alexa Fluor 488. […] Segmentation for the nuclei was determined based on gray-scale levels (baseline range 100-300) and nuclear size. Averages and standard deviations were calculated for each replicate data set. […]

Compound	relative cell numbers recovered through differentiation step 5 (GDF-8 with compound in step 1, relative to activin A and Wnt3a)	cell numbers and SOX17 expression after step 1 (100 ng/ml GDF-8 with 2.5 μM compound on first day)
CN1CCC(=O)NCCCc2cncc(c2)-c2ncnc(n2)Nc2cccc(c2)C1 [Compound 19, 14-Methyl-3,5,7,14,18,24,28-heptaazatetracyclo[20.3.1.1˜2,6˜0.1˜8,12˜]octacosa-1(26), 2(28), 3,5,8(27), 9,11,22,24-nonaen-17-one]	decrease in cell number	
C=CCN1CC(=O)NCCCc2cncc(c2)-c2ncnc(n2)Nc2cccc(c2)C1 [Compound 40, 14-Prop-2-en-1-yl-3,5,7,14,17,23,27-heptaazatetracyclo[19.3.1.1˜2.6˜0.1˜8,12˜]heptacosa-1(25), 2(27), 3,5,8(26), 9,11,21,23-nonaen-16-one]		cell numbers in culture and SOX17 expression equivalent to treatment with activin A and Wnt3a
